Assay results from PubChem BioAssay AID1963450 (Molecular Pharmacology Branch, DTP, NCI, 2024).
Several values for one entry are separate records, joined by “and”; a condition that tells them apart may be missing. Equal values may be shown once.

Test system: 556581-035-R-J1-PDC complex spheroid growth
Experiment: Anticancer human tumor 556581-035-R-J1-PDC patient-derived ovarian carcinoma cell line growth inhibition [Asc]
Details: for viability, T/C: stronger effect = lower value
Procedure: Multicellular complex tumor spheroid response to apoptosis pathway targeting inhibitors Alrizomadlin, Pelcitoclax, and Dasminapant in combination with a variety of drugs and investigational agents in selected tumor cell lines
The MDM2 inhibitor alrizomadlin, the Bcl-2/Bcl-xL inhibitor pelcitoclax, and the IAPs inhibitor dasminapant were evaluated both individually and in combination with standard of care and investigational anticancer small molecules within a complex spheroid model of solid tumors. . Complex spheroids include a stromal component modeled by human endothelial cells (HUVEC) and fibroblasts modeled by human mesenchymal stem cells (MSCs). The concentration ranges selected for each drug and investigational agent were based upon clinically achievable concentrations if the clinical Cmax of the agent was known.
Compounds. The drugs and investigational agents: alrizomadlin (APG-115; NSC831270), pelcitoclax (APG-1252; NSC835773), dasminapant (APG-1387;NSC834197), TAK-243 (NSC785004), copanlisib (NSC809693), olaparib (NSC753686), talazoparib (NSC767125), cobimetinib (NSC 768068), eltanexor (KPT-8602, NSC 794443), abemaciclib (NSC 768073), sotorasib (NSC818433), adagrasib (NSC 831453), MRTX-1133 (NSC 836407), Iadademestat (ORY1001, NSC 806812), and RMC-4630 (NSC839698), were obtained from the NCI Developmental Therapeutics Program Chemical Repository. The FDA-approved anticancer drug set is available from the Developmental Therapeutics Program at https://dtp.cancer.gov/organization/dscb/obtaining/available plates.htm. […] The stock solutions were prepared in dimethyl sulfoxide (DMSO, Sigma-Aldrich, St. Louis, MO, cat. D2650) at 800-fold the tested concentration and stored at -70 degrees C prior to their use. All drugs and investigational agents were tested over a range starting from a high concentration at or near the clinical Cmax and decreasing in half-log increments. If the clinical Cmax for an agent had not been determined, the highest concentration tested was 10 microM.
The patient-derived cancer (PDC) cell lines include five colon adenocarcinomas: 186277-243-T-J2-PDC, 616215-338-R-J1-PDC, 439559-082-T-J2-PDC, 463943-066-T-J2-PDC, and 519858-162-T-J1-PDC; three pancreatic carcinomas: 323965-272-R-J2-PDC, 521955-158-R6-J3-PDC, and 521955-158-R2-J5-PDC; two uterine sarcomas: 327498-152-R-J2-PDC and 993429-296-R-J1-PDC; two rhabdomyosarcomas: 755483-174-R-J1-PDC and 772245-204-R-J1-PDC; two soft tissue sarcomas: 126254-015-R-J1-PDC and 494315-158-R-J1-PDC; two malignant fibrous histiocytomas: 317291-083-R-J1-PDC and 596521-263-R-J1-PDC; two breast carcinomas: 171881-019-R-J1-PDC and 885512-296-R-J2-PDC; and one ovarian carcinoma: 6556581-035-R-J-PDC were obtained from the NCI PDMR, (https://pdmr.cancer.gov). The established cell lines HSSY-2 synovial sarcoma (RRID:CVCL 8719), SYO-1 synovial sarcoma (RRID:CVCL_7146), MPNST malignant peripheral neural sheath tumor were obtained from the Sloan Kettering Institute. The following established cell lines were purchased from the American Type Culture Collection (ATCC, Manassas, VA), Sor the received from the NCI repository:, PANC-1 pancreatic carcinoma (CRL-1469, RRID:CVCL_0480), OVCAR-5 ovarian carcinoma (RRID:CVCL_1628), OVCAR-8 ovarian carcinoma (RRID:CVCL_1629), , MCF-7 breast carcinoma (CRL-12584, RRID:CVCL_0031), MDA-MB-231 breast carcinoma (CRL-12532, RRID:CVCL_0062), NCI-H1876 small cell lung carcinoma (CRL-5902, RRID:CVCL_1503), NCI-H510A small cell lung carcinoma (HTB-184, RRID:CVCL_1565), NCI-H1417 (CRL-5869, RRID:CVCL_1469), and NCI-H196 small cell lung carcinoma (CRL-5823, RRID:CVCL_1509). Dr. Peter Houghton (Greehey Children's Cancer Research Institute, University of Texas Health Science Center, San Antonio, TX) provided Rh-18 rhabdomyosarcoma (RRID:CVCL_1659). Pooled donor human umbilical vein endothelial cells (HUVEC, Lonza, cat. CC-2519) and human mesenchymal stem cells (hMSC, Lonza, cat. PT-2501) were purchased from Lonza (Walkersville, MD).
Cell Culture. […]
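Also: spheroids exposed to agents for 7 days before viability read.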

SMILES | viability, T/C (compound 0.0316 µM) | viability, T/C (compound 0.1 µM) | viability, T/C (compound 0.316 µM) | viability, T/C (compound 1 µM) | viability, T/C (compound 3.16 µM) | viability, T/C (compound 10 µM) | IC50 (curve of compound) | viability, T/C (compound 0.00316 µM) | viability, T/C (compound 0.01 µM) | further results
C#Cc1c(F)ccc2cc(O)cc(-c3ncc4c(N5CC6CCC(C5)N6)nc(OCC56CCCN5CC(F)C6)nc4c3F)c12 (stereo unspecified) | 101% and 92.2% and 88% | 105% and 102% and 87.2% | 94.2% and 81% and 90.1% | 102% and 80.5% and 75.8% | 97.2% and 89.5% and 113% | 91.1% and 85.6% and 83.9% | > 10000 nM |  |  | 
C=C(F)C(=O)N1CCN(c2nc(OCC3CCCN3C)nc3c2CCN(c2cccc4cccc(Cl)c24)C3)CC1CC#N (stereo unspecified) | 77.9% and 98.7% and 100% | 113% and 115% and 91.5% | 102% and 110% and 95% | 90.5% and 87% and 93.3% | 48.4% and 64.9% and 55.1% | 15% and 3.22% and 1% | 3020 nM and 4070 nM and 3520 nM |  |  | 
C=CC(=O)N1CCN(c2nc(=O)n(-c3c(C)ccnc3C(C)C)c3nc(-c4c(O)cccc4F)c(F)cc23)C(C)C1 (stereo unspecified) | 111% and 113% and 95.5% | 88.9% and 109% and 106% | 104% and 110% and 108% | 83.5% and 88.5% and 109% | 99% and 99.9% and 109% | 111% and 76.8% and 107% | > 10000 nM |  |  | 
CCN1C(C(=O)NC23CCC(C(=O)O)(CC2)CC3)C(c2cccc(Cl)c2F)C2(C(=O)Nc3cc(Cl)ccc32)C12CCCCC2 (stereo unspecified) |  |  |  |  |  |  | > 3000 nM |  |  | viability, T/C (compound 0.00949 µM): 95.4% and 108%; IC50 (compound alone, run of 10/11/2022): > 3000 nM
CCN1CCN(Cc2ccc(Nc3ncc(F)c(-c4cc(F)c5nc(C)n(C(C)C)c5c4)n3)nc2)CC1 | 88.9% and 97.7% and 107% | 85.2% and 84.8% and 106% | 76.2% and 64.5% and 69.5% | 76.5% and 76.4% and 66.7% |  |  | > 1000 nM | 105% and 78% and 90.7% | 84.4% and 87.4% and 107% | 
CNC(C)C(=O)NC1CN(S(=O)(=O)c2cccc(S(=O)(=O)N3CCC4CCC(C(=O)NC(c5ccccc5)c5ccccc5)N4C(=O)C(NC(=O)C(C)NC)C3)c2)CCC2CCC(C(=O)NC(c3ccccc3)c3ccccc3)N2C1=O (stereo unspecified) | 89.3% [middle of 14 runs] |  | 74.3% [middle of 14 runs] |  |  |  | > 1000 nM | 96.2% and 82.3% and 87.2% |  | IC50 (compound alone, run of 10/24/2022): > 1000 nM; IC50 (compound alone, run of 11/15/2022): > 1000 nM
COc1c(OCCCN2CCOCC2)ccc2c3n(c(=NC(=O)c4cnc(N)nc4)nc12)CCN3 | 46.2% and 48.9% and 45.8% | 48.2% and 42% and 41% | 31.7% and 22.4% and 24.1% | 11.9% and 14.8% and 17.5% |  |  | 53.7 nM and 38.1 nM and 25.9 nM | 78.2% and 82.3% and 79.7% | 72.5% and 69% and 57% | 
Cc1nc(N2CCC3(CC2)COC(C)C3N)c(CO)nc1Sc1ccnc(N)c1Cl (stereo unspecified) |  |  |  |  |  |  | 2290 nM and > 3000 nM |  |  | viability, T/C (compound 0.00949 µM): 111% (2×) and 89.8%; viability, T/C (compound 0.03 µM): 101% and 92.6% and 91.2%; viability, T/C (compound 0.0949 µM): 87.5% and 79.8% and 84%; viability, T/C (compound 0.3 µM): 81.9% and 68.8% and 83.9%; viability, T/C (compound 0.949 µM): 62.8% and 61.9% and 56.5%; viability, T/C (compound 3 µM): 44.7% and 51% and 51.8%
Cn1ncnc1[C@H]1c2n[nH]c(=O)c3cc(F)cc(c23)N[C@@H]1c1ccc(F)cc1 | 105% and 86.6% and 94.5% | 99.7% and 85.6% and 94.2% |  |  |  |  | > 100 nM | 97.7% and 107% and 74.9% | 106% and 99.9% and 76.3% | viability, T/C (compound 0.000316 µM): 100% and 86.8% and 84.9%; viability, T/C (compound 0.001 µM): 111% and 95.3% and 97%
NC(=O)C(=Cn1cnc(-c2cc(C(F)(F)F)cc(C(F)(F)F)c2)n1)c1cncnc1 |  |  |  |  |  |  | > 300 nM |  |  | viability, T/C (compound 0.000949 µM): 96.8% and 78.4% and 91%; viability, T/C (compound 0.003 µM): 79.9% and 83.7% and 94.9%; viability, T/C (compound 0.00949 µM): 97.6% and 97.4% and 87%; viability, T/C (compound 0.03 µM): 88.8% and 107% and 101%; viability, T/C (compound 0.0949 µM): 97.1% and 55.4% and 87.1%; viability, T/C (compound 0.3 µM): 95.9% and 77.4% and 102%
NC1CCC(NC2CC2c2ccccc2)CC1 (stereo unspecified) | 94.2% and 84.8% and 111% | 87.9% and 97.2% and 85% |  |  |  |  | > 100 nM | 92.3% and 95.4% and 89.9% | 89.6% and 94.8% and 95.2% | viability, T/C (compound 0.000316 µM): 86.2% and 89% and 93.9%; viability, T/C (compound 0.001 µM): 88.5% and 105% and 92.8%
O=C(c1cc(Cc2n[nH]c(=O)c3ccccc23)ccc1F)N1CCN(C(=O)C2CC2)CC1 | 102% and 112% and 91.3% | 107% and 101% and 99.2% | 106% (2×) and 60% | 95.7% and 85.4% and 88.8% | 106% and 98.3% and 72.7% | 81.1% and 83.3% and 78.6% | > 10000 nM |  |  | 
O=C(c1ccc(F)c(F)c1Nc1ccc(I)cc1F)N1CC(O)([C@@H]2CCCCN2)C1 | 59.3% and 70.2% and 121% | 63.9% and 59.8% and 92% | 50.6% and 37.8% and 42% | 7.45% and 10.7% and 14% |  |  | 171 nM and 164 nM and 263 nM | 108% and 79.6% and 89.6% | 109% and 97.5% and 101% | 
